In publication PMC6580715 (Clinical Medicine Insights. Endocrinology and Diabetes, 2019):
No end group written: not given here.

Assays:
BRIN-BD11 beta-cells [1] = assay: Beta-cell proliferation, Ki-67 staining, BRIN-BD11; format: cell-based, rodent; conditions: BRIN BD11, 10^-8 and 10^-6 M, n = 3
1.1B4 beta-cells = assay: Beta-cell proliferation, Ki-67 staining, 1.1B4; format: cell-based, human; conditions: 1.1B4, 10^-8 and 10^-6 M, n = 3
DPP-4 = assay: 50 mM triethanolamine/HCl; conditions: 37°C, up to 8 hours
BRIN-BD11 beta-cells [2] = assay: Protection against cytokine-induced apoptosis, TUNEL, BRIN-BD11; format: cell-based, rodent; conditions: n = 3
BRIN-BD11 beta-cells [3] = assay: In vitro insulin secretion from BRIN-BD11 beta-cells; format: cell-based, rodent; conditions: peptides 10^-12-10^-6 M, 20-minute incubation, insulin radioimmunoassay, n = 8, vs 16.7 mM glucose

## GLP-1: GLP-1 positive control (HAEGTFTSDVSSYLEGQAAKEFIAWLVKGR; ends and bridges not checked; UniProt P01275 98-127, looked up) [reference compound]
BRIN-BD11 beta-cells [1]
  beta-cell proliferation vs control cultures: significantly (P < .05 to P < .001) increased
1.1B4 beta-cells
  beta-cell proliferation vs control cultures: significantly (P < .05 to P < .001) increased

## YPIKPEAPGEDK(PAL)SPEELNRYYASLRHYLNLVTRQRY
DPP-4
  fragment found: PYY(3-36)(Lys^12PAL), 8 h

## YPIKPEAPGEDK(PAL)SPEELNRYYASLRHYLNLVTRQRY [PYY(1-36)(Lys^12PAL)]
BRIN-BD11 beta-cells [2]; BRIN BD11, 10^-8 M only, cytokine cocktail
  cytokine-induced apoptosis vs cytokine cocktail control: barring PYY(1-36)(Lys^12PAL) at 10^-8 M
BRIN-BD11 beta-cells [2]; BRIN BD11, 10^-8 and 10^-6 M, cytokine cocktail (IL-1β, IFNγ, TNFα)
  cytokine-induced apoptosis vs cytokine cocktail control: offered some protection against apoptosis
BRIN-BD11 beta-cells [2]; BRIN BD11, same concentration, cytokine cocktail
  protection against apoptosis compared with PYY(1-36): significantly (P < .05 to P < .01) less efficacious
1.1B4 beta-cells
  beta-cell proliferation vs control cultures: significantly increased (P < .05 to P < .01) the proliferation of both beta-cell lines
BRIN-BD11 beta-cells [3]
  insulin secretion at 16.7 mM glucose (GSIS): had no impact on GSIS
